{"source": "patent US20120252045A1", "about": "“METHOD OF ASSESSING ISLET FUNCTION” (priority 2009, published 2012)", "key": {"β-TC6 cells": {"system": "β-TC6 cells", "conditions": "n=4", "method": "(§1) Porcine islet OCRs were assessed in triplicate aliquots of 1000 IEQ. Controls comprising media alone and heat-killed islets (1000 IEQ ×3 incubated for 1 hour at 60° C.) were assayed in parallel. OCRs were measured using a fiber optic sensor oxygen monitoring system (Instech Laboratories Plymouth Meeting, Pa.), which quantifies the decrease in oxygen partial pressure (pO2) over time, as described by Papas et al., “A Stirred Microchamber for Oxygen Consumption Rate Measurements with Pancreatic Islet Cells,” Biotechnol Bioeng 2007; 98: 1071-1082. OCRs were standardized to the amount of DNA in each chamber (nmol/min-mgDNA), which was determined using a Quant-iT PicoGreen dsDNA kit (Molecular Probes, Eugene, Oreg.).\nReductions in OCR were assessed by comparing the effect of the NaAz on the OCR measurements to the OCR capability of non-treated cells. BTC6 cells and Hela cells were incubated on 150 mm culture dishes for 2 days in a 37° C. incubator with a 5% CO2 environment. The cells were then removed using 5 mM EDTA/PBS and washed once with PBS. The resulting cell pellet was resuspended in 5 mL of DMEM (Sigma) supplemented with 5% FCS (Sigma) and Penicillin/Streptomycin (Invitrogen). Cells were then incubated with various concentrations (0.01, 0.1, 1.0 and 10 mg/ml) of sodium azide (Sigma) for 10 minutes prior to measuring their oxygen consumption rates."}, "adult porcine islets": {"system": "adult porcine islets", "conditions": "vs non-NaAz treated cells", "method": "as §1\nThe experiment was repeated 3 times."}}, "note": "Read-outs that look alike come from different tables or passages of the source.", "data": [{"smiles": "[N-]=[N+]=[N-]", "note": "[NaAz, sodium azide]", "values": [{"measurement": "reduction in OCR", "setting": "β-TC6 cells; β-TC6 cells incubated with 0.1 mg/ml NaAz for 10 minutes", "result": "29.8±4.5", "unit": "%"}, {"measurement": "reduction in OCR", "setting": "β-TC6 cells; β-TC6 cells incubated with 1 mg/ml NaAz for 10 minutes", "result": "71.2±6.6", "unit": "%"}, {"measurement": "reduction in OCR", "setting": "β-TC6 cells; β-TC6 cells incubated with 10 mg/ml NaAz for 10 minutes", "result": "85.9±2.3", "unit": "%"}, {"measurement": "reduction in OCR", "setting": "adult porcine islets; islets incubated with 0.1 mg/ml NaAz for 10 minutes", "result": 37.6, "unit": "%"}, {"measurement": "reduction in OCR", "setting": "adult porcine islets; islets incubated with 1 mg/ml NaAz for 10 minutes", "result": 59.7, "unit": "%"}, {"measurement": "reduction in OCR", "setting": "adult porcine islets; islets incubated with 10 mg/ml NaAz for 10 minutes", "result": 84.2, "unit": "%"}]}]}
